Data published in article PMC6887723, “Design and Synthesis of 4-(Heterocyclic Substituted Amino)-1H-Pyrazole-3-Carboxamide Derivatives and Their Potent Activity against Acute Myeloid Leukemia (AML)” (International Journal of Molecular Sciences, 2019).

Legend:
CDK2 = target: T1, CDK2 (Homo sapiens, UniProt P24941); assay: CDK2 kinase activity assay (Hot-Spot); type: biochemical; details: 10 μM ATP; mean ± SD, three independent experiments
T1 construct: purchased Reaction Biology Corp
Method: (§1) Activities of kinases were determined using Hot-SpotSM kinase assay which was performed by Reaction Biology Corp. (Malvern PA, USA) as described previously.

FLT3 = target: T2, FLT3 (Homo sapiens, UniProt P36888); assay: FLT3 kinase activity assay (Hot-Spot); type: biochemical; details: 10 μM ATP; mean ± SD, three independent experiments
T2 construct: purchased Reaction Biology Corp
T2 sequence (P36888 27-993): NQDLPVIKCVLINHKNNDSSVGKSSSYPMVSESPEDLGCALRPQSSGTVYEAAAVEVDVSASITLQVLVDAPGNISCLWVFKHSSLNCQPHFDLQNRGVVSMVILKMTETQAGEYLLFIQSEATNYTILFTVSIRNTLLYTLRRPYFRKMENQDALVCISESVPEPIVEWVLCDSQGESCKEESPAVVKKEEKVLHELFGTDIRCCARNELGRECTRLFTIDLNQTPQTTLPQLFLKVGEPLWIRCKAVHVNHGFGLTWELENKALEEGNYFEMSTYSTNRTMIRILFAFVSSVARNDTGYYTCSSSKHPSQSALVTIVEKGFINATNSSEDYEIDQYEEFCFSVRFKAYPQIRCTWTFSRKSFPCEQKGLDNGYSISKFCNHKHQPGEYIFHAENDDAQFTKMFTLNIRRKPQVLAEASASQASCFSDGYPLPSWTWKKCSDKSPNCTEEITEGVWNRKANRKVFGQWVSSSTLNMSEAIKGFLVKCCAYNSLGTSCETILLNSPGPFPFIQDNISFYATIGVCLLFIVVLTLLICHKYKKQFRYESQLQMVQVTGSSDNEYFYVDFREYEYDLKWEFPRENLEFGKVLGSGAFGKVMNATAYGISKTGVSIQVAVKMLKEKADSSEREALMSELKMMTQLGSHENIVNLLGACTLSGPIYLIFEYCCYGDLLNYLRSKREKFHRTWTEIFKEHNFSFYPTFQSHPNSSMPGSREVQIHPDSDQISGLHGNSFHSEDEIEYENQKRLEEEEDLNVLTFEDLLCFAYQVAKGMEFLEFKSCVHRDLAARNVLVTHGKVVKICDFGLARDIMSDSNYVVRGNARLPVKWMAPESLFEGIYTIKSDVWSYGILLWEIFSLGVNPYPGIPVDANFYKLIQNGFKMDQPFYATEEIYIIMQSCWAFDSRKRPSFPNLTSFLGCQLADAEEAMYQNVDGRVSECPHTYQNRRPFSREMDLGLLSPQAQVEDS
Method: as §1

FLT3 mutants = assay: Hot-Spot kinase profiling, FLT3 mutants together; type: biochemical; details: eight FLT3 mutants, bound for all; read-out: IC50 against FLT3 mutants
Method: as §1

[1] = system: phosphorylation of STAT5/AKT/ERK; assay: Western blot, phosphorylation of STAT5/AKT/ERK in MV4-11 cells; type: cell-based, human; details: MV4-11, 4 h, 1 μM
Method: Analysis of pFLT3, pSTAT5, pERK, pAKT, and pRb in vitro: to determine the levels of pFLT3, pSTAT5, pERK, pAKT, and pRb, cells were seeded in a 6-well cell culture plate at a density of 400,000 cells per well for MV4-11 in a total volume of 1800 μL and incubated overnight in medium containing 10% fetal bovine serum (Life Technologies, Rockville, MD, USA). Then 200 μL of serially diluted compounds were added to each well the next day. Cell lysates were harvested after 4 h and pFLT3, pSTAT5, pERK, pAKT, or pRb were quantified using assay kits for FLT3/Phospho-FLT3Tyr589/591, pSTAT5 (Tyr694)/total STAT5, pRb (Ser807)/total Rb (Nanjin keyGen Biotech Company, Nanjing, China) following the manufacturer’s protocols.

A549/ATCC = assay: NCI60 screening; type: cell-based; details: Homo sapiens, Non-Small Cell Lung Cancer panel
Text: (§2) With these findings, we submitted compound 8t to National Cancer Institute (NCI) to evaluate their antitumor efficacy against 60 human cancer cell lines.

DU-145 = assay: NCI60 screening; type: cell-based; details: Homo sapiens, Prostate Cancer panel
Text: as §2

EKVX = assay: NCI60 screening; type: cell-based; details: Homo sapiens, Non-Small Cell Lung Cancer panel
Text: as §2

HCC-2998 = assay: NCI60 screening; type: cell-based; details: Homo sapiens, Colon Cancer panel
Text: as §2

HCT-116 = assay: NCI60 screening; type: cell-based; details: Homo sapiens, Colon Cancer panel
Text: as §2

HCT-15 = assay: NCI60 screening; type: cell-based; details: Homo sapiens, Colon Cancer panel
Text: as §2

HOP-62 = assay: NCI60 screening; type: cell-based; details: Homo sapiens, Non-Small Cell Lung Cancer panel
Text: as §2

HT29 = assay: NCI60 screening; type: cell-based; details: Homo sapiens, HT-29; Colon Cancer panel
Text: as §2

IGROV1 = assay: NCI60 screening; type: cell-based; details: Homo sapiens, IGROV-1; Ovarian Cancer panel
Text: as §2

LOX IMVI = assay: NCI60 screening; type: cell-based; details: Homo sapiens, Melanoma panel
Text: as §2

MDA-MB-231 = assay: NCI60 screening; type: cell-based; details: Homo sapiens, Breast Cancer panel
Text: as §2

NCI-H23 = assay: NCI60 screening; type: cell-based; details: Homo sapiens, Non-Small Cell Lung Cancer panel
Text: as §2

NCI-H460 = assay: NCI60 screening; type: cell-based; details: Homo sapiens, Non-Small Cell Lung Cancer panel
Text: as §2

OVCAR-3 = assay: NCI60 screening; type: cell-based; details: Homo sapiens, Ovarian Cancer panel
Text: as §2

OVCAR-4 = assay: NCI60 screening; type: cell-based; details: Homo sapiens, Ovarian Cancer panel
Text: as §2

PC-3 = assay: NCI60 screening; type: cell-based; details: Homo sapiens, Prostate Cancer panel
Text: as §2

SF-268 = assay: NCI60 screening; type: cell-based; details: Homo sapiens, CNS Cancer panel
Text: as §2

SF-295 = assay: NCI60 screening; type: cell-based; details: Homo sapiens, CNS Cancer panel
Text: as §2

SK-MEL-28 = assay: NCI60 screening; type: cell-based; details: Homo sapiens, Melanoma panel
Text: as §2

SK-MEL-2 = assay: NCI60 screening; type: cell-based; details: Homo sapiens, Melanoma panel
Text: as §2

SK-MEL-5 = assay: NCI60 screening; type: cell-based; details: Homo sapiens, Melanoma panel
Text: as §2

SK-OV-3 = assay: NCI60 screening; type: cell-based; details: Homo sapiens, Ovarian Cancer panel
Text: as §2

SN12C = assay: NCI60 screening; type: cell-based; details: Homo sapiens, Renal Cancer panel
Text: as §2

SNB-19 = assay: NCI60 screening; type: cell-based; details: Homo sapiens, CNS Cancer panel
Text: as §2

TK-10 = assay: NCI60 screening; type: cell-based; details: Homo sapiens, Renal Cancer panel
Text: as §2

O=C(Nc1ccc(N2CCNCC2)cc1)c1n[nH]cc1Nc1ncnc2sc3c(c12)CCC3 [Compound 8t] gave an IC50 (CDK2) of 0.719 ± 0.064 nM, an IC50 (FLT3) of 0.089 ± 0.013 nM and an IC50 (FLT3 mutants) of less than 5 nM. For the same compound, the “phosphorylation of STAT5/AKT/ERK” value [1] was “completely blocked”, the GI50 (A549/ATCC) was 140 nM and the GI50 (DU-145) was 300 nM. For the same compound, the GI50 (EKVX) was 60 nM, the GI50 (HCC-2998) was 1200 nM and the GI50 (HCT-116) was 110 nM. For the same compound, the GI50 (HCT-15) was 220 nM, the GI50 (HOP-62) was 370 nM and the GI50 (HT29) was 260 nM. It also gave a GI50 (IGROV1) of 120 nM, a GI50 (LOX IMVI) of 200 nM and a GI50 (MDA-MB-231) of 1930 nM. The GI50 (NCI-H23) was 260 nM, the GI50 (NCI-H460) was 60 nM and the GI50 (OVCAR-3) was 230 nM. The GI50 (OVCAR-4) was 220 nM, the GI50 (PC-3) was 180 nM and the GI50 (SF-268) was 720 nM. For the same compound, the GI50 (SF-295) was 270 nM, the GI50 (SK-MEL-28) was 1130 nM and the GI50 (SK-MEL-2) was 1160 nM. It also gave a GI50 (SK-MEL-5) of 250 nM, a GI50 (SK-OV-3) of 260 nM and a GI50 (SN12C) of 450 nM. It also gave a GI50 (SNB-19) of 240 nM and a GI50 (TK-10) of 470 nM.
